Measurements taken from ChEMBL document CHEMBL3046674, “A new fatty alcohol from Terminalia arjuna leaves with antileishmanial activity” (Med Chem Res, 2013).
Values after ≈ are worked out from the molar mass of the structure shown.

The molecules below were run on Leishmania donovani (assay: Antileishmanial activity against promastigote form of Leishmania donovani after 48 hrs by Alamar Blue assay).
Assay type: functional, organism-based

Compound	IC50 [µg/mL]	IC90 [µg/mL]
C[C@@H]1[C@H](O)[C@@H](C)/C=C/C=C/C=C/C=C/C=C/C=C/C=C/[C@H](O[C@@H]2O[C@H](C)[C@@H](O)[C@H](N)[C@@H]2O)C[C@@H]2O[C@](O)(C[C@@H](O)C[C@@H](O)[C@H](O)CC[C@@H](O)C[C@@H](O)CC(=O)O[C@H]1C)C[C@H](O)[C@H]2C(=O)O [AMPHOTERICIN B]	0.47 (≈ 0.509 µM)	0.65 (≈ 0.703 µM)
N=C(N)c1ccc(OCCCCCOc2ccc(C(=N)N)cc2)cc1 [PENTAMIDINE]	–	2.03 (≈ 5.96 µM)
CC(=O)OC/C=C(\C)CC(C)CC(C)CCCCCCCCC(C)C (configuration not stated)	2 (≈ 5.67 µM)	6 (≈ 17 µM)
C/C(=C\CO)CC(C)CC(C)CCCCCCCCC(C)C (configuration not stated)	9 (≈ 29 µM)	30 (≈ 96.6 µM)
